Source: the NIST ThermoML archive (doi:10.1016/j.jct.2006.02.001)

Assays:
[1] = xn = mol fraction of the nth substance listed; conditions: 101 kPa, Liquid
[2] = refractive index (Na D-line) (dimensionless); xn = mol fraction of the nth substance listed; conditions: 101 kPa, Liquid

Cc1ccccc1C [1,2-dimethylbenzene] + COc1ccccc1
x2 = 0
Conditions	mass density, 288.15 K [kg/m3]	mass density, 293.15 K [kg/m3]	mass density, 298.15 K [kg/m3]	mass density, 303.15 K [kg/m3]	refractive index, 288.15 K	refractive index, 293.15 K	refractive index, 298.15 K	refractive index, 303.15 K
[1]	883.29	879.08	875.53	870.73	–	–	–	–
[2]	–	–	–	–	1.5072	1.5047	1.5018	1.5

Cc1cc(C)cc(C)c1 [1,3,5-trimethylbenzene] + COc1ccccc1
Conditions	mass density, 288.15 K [kg/m3]	mass density, 293.15 K [kg/m3]	mass density, 298.15 K [kg/m3]	mass density, 303.15 K [kg/m3]	refractive index, 288.15 K	refractive index, 293.15 K	refractive index, 298.15 K	refractive index, 303.15 K
[1], x2 = 0	869.17	865.07	861.06	856.95	–	–	–	–
[1], x2 = 0.1099	880.36	876.24	872.21	868.07	–	–	–	–
[1], x2 = 0.2441	894.89	890.7	886.62	882.42	–	–	–	–
[1], x2 = 0.3933	912.23	907.95	903.79	899.5	–	–	–	–
[1], x2 = 0.509	926.57	922.2	917.98	913.64	–	–	–	–
[1], x2 = 0.672	948.28	943.8	939.52	935.05	–	–	–	–
[1], x2 = 0.749	959.22	954.69	950.34	945.87	–	–	–	–
[1], x2 = 0.8397	972.73	968.14	963.75	959.19	–	–	–	–
[1], x2 = 0.895	981.31	976.67	972.25	967.63	–	–	–	–
[1], x2 = 0.967	992.94	988.19	983.74	979.01	–	–	–	–
[2], x2 = 0	–	–	–	–	1.5045	1.4993	1.4976	1.4948
[2], x2 = 0.1099	–	–	–	–	1.5063	1.5009	1.4991	1.4964
[2], x2 = 0.2441	–	–	–	–	1.5088	1.5029	1.5011	1.4984
[2], x2 = 0.3933	–	–	–	–	1.5116	1.5054	1.5033	1.5007
[2], x2 = 0.509	–	–	–	–	1.5142	1.5073	1.5052	1.5026
[2], x2 = 0.672	–	–	–	–	1.5175	1.5103	1.5079	1.5054
[2], x2 = 0.749	–	–	–	–	1.5193	1.5117	1.5093	1.5068
[2], x2 = 0.8397	–	–	–	–	1.5214	1.5136	1.511	1.5086
[2], x2 = 0.895	–	–	–	–	1.5228	1.5147	1.5121	1.5097
[2], x2 = 0.967	–	–	–	–	1.5247	1.5162	1.5135	1.5111

Cc1cccc(C)c1 [1,3-dimethylbenzene] + COc1ccccc1
x2 = 0
Conditions	mass density, 288.15 K [kg/m3]	mass density, 293.15 K [kg/m3]	mass density, 298.15 K [kg/m3]	mass density, 303.15 K [kg/m3]	refractive index, 288.15 K	refractive index, 293.15 K	refractive index, 298.15 K	refractive index, 303.15 K
[1]	868.32	864.05	859.77	855.47	–	–	–	–
[2]	–	–	–	–	1.4997	1.4973	1.4944	1.4925

Cc1ccc(C)cc1 [1,4-dimethylbenzene] + COc1ccccc1
x2 = 0
Conditions	mass density, 288.15 K [kg/m3]	mass density, 293.15 K [kg/m3]	mass density, 298.15 K [kg/m3]	mass density, 303.15 K [kg/m3]	refractive index, 288.15 K	refractive index, 293.15 K	refractive index, 298.15 K	refractive index, 303.15 K
[1]	865.25	860.92	856.62	852.25	–	–	–	–
[2]	–	–	–	–	1.4983	1.4958	1.4929	1.4915

COc1ccccc1 [anisole] + Cc1cc(C)cc(C)c1
x1 = 1
Conditions	mass density, 288.15 K [kg/m3]	mass density, 293.15 K [kg/m3]	mass density, 298.15 K [kg/m3]	mass density, 303.15 K [kg/m3]	refractive index, 288.15 K	refractive index, 293.15 K	refractive index, 298.15 K	refractive index, 303.15 K
[1]	998.44	993.65	989.15	984.37	–	–	–	–
[2]	–	–	–	–	1.5256	1.5169	1.5141	1.5117

COc1ccccc1 [anisole] + Cc1ccc(C)cc1
Conditions	mass density, 288.15 K [kg/m3]	mass density, 293.15 K [kg/m3]	mass density, 298.15 K [kg/m3]	mass density, 303.15 K [kg/m3]	refractive index, 288.15 K	refractive index, 293.15 K	refractive index, 298.15 K	refractive index, 303.15 K
[1], x1 = 0.0994	877.53	873.32	869.02	864.71	–	–	–	–
[1], x1 = 0.2471	896.11	891.85	887.55	883.2	–	–	–	–
[1], x1 = 0.3745	912.51	908.14	903.84	899.38	–	–	–	–
[1], x1 = 0.496	928.51	924.05	919.74	915.2	–	–	–	–
[1], x1 = 0.6455	948.69	944.15	939.83	935.26	–	–	–	–
[1], x1 = 0.7466	962.63	958.06	953.71	949.14	–	–	–	–
[1], x1 = 0.8972	983.79	979.14	974.73	970.18	–	–	–	–
[1], x1 = 0.949	991.13	986.45	981.99	977.4	–	–	–	–
[1], x1 = 0.9772	995.17	990.43	985.95	981.34	–	–	–	–
[1], x1 = 1	998.44	993.65	989.15	984.37	–	–	–	–
[2], x1 = 0.0994	–	–	–	–	1.5007	1.4978	1.4949	1.4935
[2], x1 = 0.2471	–	–	–	–	1.5044	1.5006	1.4978	1.4963
[2], x1 = 0.3745	–	–	–	–	1.5077	1.5032	1.5004	1.4987
[2], x1 = 0.496	–	–	–	–	1.5109	1.5057	1.5029	1.5011
[2], x1 = 0.6455	–	–	–	–	1.5151	1.5089	1.5061	1.5042
[2], x1 = 0.7466	–	–	–	–	1.5179	1.5111	1.5084	1.5064
[2], x1 = 0.8972	–	–	–	–	1.5223	1.5145	1.5118	1.5097
[2], x1 = 0.949	–	–	–	–	1.5239	1.5157	1.5129	1.5107
[2], x1 = 0.9772	–	–	–	–	1.5248	1.5164	1.5136	1.5113
[2], x1 = 1	–	–	–	–	1.5256	1.5169	1.5141	1.5117
